What is called inhibition is how much of the control response was suppressed. Read a high inhibition as a response far below the control.

Inhibition data for 1 compound are collected here from ChEMBL document CHEMBL5247606, “Advances of targeting the YAP/TAZ-TEAD complex in the hippo pathway for the treatment of cancers” (Eur J Med Chem, 2022).

Test [1] has as its target Transcriptional coactivator YAP1 (Homo sapiens) (UniProt P46937). Nature of the test: Inhibition of YAP (unknown origin) phosporylation relative to control. Particulars: concentration not given here.
In test [2] the target is T1, Serine/threonine-protein kinase LATS1 (Homo sapiens) (UniProt O95835).
T1 sequence (whole entry): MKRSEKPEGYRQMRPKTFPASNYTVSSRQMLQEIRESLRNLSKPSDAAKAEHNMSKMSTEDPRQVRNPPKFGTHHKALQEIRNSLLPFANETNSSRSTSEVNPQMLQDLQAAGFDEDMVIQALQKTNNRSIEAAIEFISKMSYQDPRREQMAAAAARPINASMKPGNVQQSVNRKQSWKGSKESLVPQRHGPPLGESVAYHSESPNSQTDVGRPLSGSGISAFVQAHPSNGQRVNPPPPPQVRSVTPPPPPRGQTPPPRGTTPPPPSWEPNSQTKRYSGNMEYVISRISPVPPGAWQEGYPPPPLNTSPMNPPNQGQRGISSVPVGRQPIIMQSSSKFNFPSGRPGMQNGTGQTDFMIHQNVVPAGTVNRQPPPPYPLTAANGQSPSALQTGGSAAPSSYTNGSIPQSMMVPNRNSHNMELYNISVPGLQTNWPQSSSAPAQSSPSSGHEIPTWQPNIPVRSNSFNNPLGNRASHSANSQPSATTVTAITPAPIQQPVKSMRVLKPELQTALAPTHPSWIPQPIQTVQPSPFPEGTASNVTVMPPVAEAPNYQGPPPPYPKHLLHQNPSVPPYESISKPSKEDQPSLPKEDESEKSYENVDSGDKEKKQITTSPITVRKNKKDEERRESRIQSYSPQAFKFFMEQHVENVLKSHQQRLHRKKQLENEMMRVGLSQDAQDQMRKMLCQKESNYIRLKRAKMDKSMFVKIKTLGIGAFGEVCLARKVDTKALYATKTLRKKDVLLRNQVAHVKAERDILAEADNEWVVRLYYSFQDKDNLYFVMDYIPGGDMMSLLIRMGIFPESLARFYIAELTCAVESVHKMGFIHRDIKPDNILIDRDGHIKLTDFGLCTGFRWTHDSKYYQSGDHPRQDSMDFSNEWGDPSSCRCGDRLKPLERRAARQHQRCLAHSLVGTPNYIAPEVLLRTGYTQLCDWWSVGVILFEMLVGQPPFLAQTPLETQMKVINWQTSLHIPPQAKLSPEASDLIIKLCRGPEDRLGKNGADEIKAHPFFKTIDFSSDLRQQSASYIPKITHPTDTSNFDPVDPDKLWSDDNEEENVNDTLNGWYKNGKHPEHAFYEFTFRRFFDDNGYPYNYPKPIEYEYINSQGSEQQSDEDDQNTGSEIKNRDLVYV
The experiment in a line: Inhibition of LATS1 (unknown origin) phosporylation relative to control. To be noted: dose 10.0 µM.

A value given as a limit tells only on which side of the number the result lay.

Chain of Transcriptional coactivator YAP1 (Homo sapiens) (P46937 whole entry): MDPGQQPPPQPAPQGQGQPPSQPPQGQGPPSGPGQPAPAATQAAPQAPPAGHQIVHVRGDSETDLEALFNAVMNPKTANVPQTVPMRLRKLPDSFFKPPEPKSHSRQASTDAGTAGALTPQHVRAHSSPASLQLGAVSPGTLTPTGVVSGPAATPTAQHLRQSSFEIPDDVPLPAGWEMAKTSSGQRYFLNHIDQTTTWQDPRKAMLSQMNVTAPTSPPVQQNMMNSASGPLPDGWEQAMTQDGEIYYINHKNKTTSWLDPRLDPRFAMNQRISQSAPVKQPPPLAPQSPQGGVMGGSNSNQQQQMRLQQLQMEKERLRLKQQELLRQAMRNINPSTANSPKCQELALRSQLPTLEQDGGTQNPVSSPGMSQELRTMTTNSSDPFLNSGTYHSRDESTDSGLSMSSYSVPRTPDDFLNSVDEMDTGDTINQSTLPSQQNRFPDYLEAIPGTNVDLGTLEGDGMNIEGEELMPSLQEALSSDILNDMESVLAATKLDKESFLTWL

For the compound `CCOc1cc2ncc(C#N)c(Nc3ccc(OCc4ccccn4)c(Cl)c3)c2cc1NC(=O)/C=C/CN(C)C`, the inhibition in test [1] and in test [2] was less than 30% each time.
